Assays:
Assay type in all cases: binding
[1] = biological target: T1, SW480 colon carcinoma cells lysate proteins (Homo sapiens, UniProt Q15102); conditions: PreyGene PAFAH1B3; SW480 cells
T1 sequence (Q15102 1-231): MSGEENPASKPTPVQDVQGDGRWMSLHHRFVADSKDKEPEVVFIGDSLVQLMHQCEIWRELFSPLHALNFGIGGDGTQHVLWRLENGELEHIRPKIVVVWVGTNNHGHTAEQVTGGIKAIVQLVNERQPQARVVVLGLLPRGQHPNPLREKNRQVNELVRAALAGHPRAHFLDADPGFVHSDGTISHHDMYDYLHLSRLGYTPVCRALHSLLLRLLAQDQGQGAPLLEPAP

[2] = biological target: SW480 colon carcinoma cells lysate proteins (Homo sapiens, UniProt Q15365); conditions: PreyGene PCBP1; SW480 cells
[3] = biological target: T2, SW480 colon carcinoma cells lysate proteins (Homo sapiens, UniProt P11586); conditions: PreyGene MTHFD1
T2 sequence (P11586 1-935): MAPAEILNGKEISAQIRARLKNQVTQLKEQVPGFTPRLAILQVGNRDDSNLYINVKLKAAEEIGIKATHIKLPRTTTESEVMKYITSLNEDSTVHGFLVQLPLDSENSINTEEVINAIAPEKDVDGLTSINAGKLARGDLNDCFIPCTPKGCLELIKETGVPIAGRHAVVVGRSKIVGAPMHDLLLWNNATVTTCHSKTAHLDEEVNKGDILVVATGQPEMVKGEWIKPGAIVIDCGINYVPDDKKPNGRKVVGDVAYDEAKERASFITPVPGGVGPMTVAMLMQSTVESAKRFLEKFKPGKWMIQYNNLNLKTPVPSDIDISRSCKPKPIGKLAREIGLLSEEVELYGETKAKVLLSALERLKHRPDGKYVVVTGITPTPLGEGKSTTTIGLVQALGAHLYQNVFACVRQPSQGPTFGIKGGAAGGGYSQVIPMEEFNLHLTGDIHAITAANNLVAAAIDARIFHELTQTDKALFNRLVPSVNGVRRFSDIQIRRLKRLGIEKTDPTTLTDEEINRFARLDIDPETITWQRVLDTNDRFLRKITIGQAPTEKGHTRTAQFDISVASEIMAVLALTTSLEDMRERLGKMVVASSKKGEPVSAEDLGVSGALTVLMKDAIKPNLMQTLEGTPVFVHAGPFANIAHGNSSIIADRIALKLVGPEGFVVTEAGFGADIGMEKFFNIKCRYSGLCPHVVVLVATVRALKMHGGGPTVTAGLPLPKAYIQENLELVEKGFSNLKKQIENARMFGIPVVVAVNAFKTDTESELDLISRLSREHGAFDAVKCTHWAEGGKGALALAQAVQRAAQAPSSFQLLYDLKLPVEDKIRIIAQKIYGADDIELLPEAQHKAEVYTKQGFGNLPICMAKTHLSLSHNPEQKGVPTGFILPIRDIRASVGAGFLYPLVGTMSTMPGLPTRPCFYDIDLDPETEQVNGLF

[4] = biological target: T3, SW480 colon carcinoma cells lysate proteins (Homo sapiens, UniProt B2RPK0); conditions: PreyGene HMGB1P1
T3 sequence (B2RPK0 1-211): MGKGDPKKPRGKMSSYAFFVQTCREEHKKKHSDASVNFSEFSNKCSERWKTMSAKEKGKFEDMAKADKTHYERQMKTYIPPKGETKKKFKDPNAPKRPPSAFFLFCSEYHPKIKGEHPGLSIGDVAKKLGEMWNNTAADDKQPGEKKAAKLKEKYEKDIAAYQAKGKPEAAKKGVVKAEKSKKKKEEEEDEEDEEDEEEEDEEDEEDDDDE

[5] = biological target: SW480 colon carcinoma cells lysate proteins (Homo sapiens, UniProt P53999); conditions: PreyGene SUB1
[6] = biological target: SW480 colon carcinoma cells lysate proteins (Homo sapiens, UniProt Q92688); conditions: PreyGene ANP32B
[7] = biological target: SW480 colon carcinoma cells lysate proteins (Homo sapiens, UniProt P07237); conditions: PreyGene P4HB
[8] = biological target: SW480 colon carcinoma cells lysate proteins (Homo sapiens, UniProt Q9Y262); conditions: PreyGene EIF3L; SW480 cells
[9] = biological target: SW480 colon carcinoma cells lysate proteins (Homo sapiens, UniProt Q9Y230); conditions: PreyGene RUVBL2
[10] = biological target: SW480 colon carcinoma cells lysate proteins (Homo sapiens, UniProt P23528); conditions: PreyGene CFL1
Sequence of SW480 colon carcinoma cells lysate proteins (Homo sapiens, UniProt P23528) (P23528 whole entry): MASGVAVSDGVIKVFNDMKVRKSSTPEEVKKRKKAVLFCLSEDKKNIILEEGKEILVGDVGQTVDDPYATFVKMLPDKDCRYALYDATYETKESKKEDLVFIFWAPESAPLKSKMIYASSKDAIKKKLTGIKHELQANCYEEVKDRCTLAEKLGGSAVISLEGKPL

Sequence of SW480 colon carcinoma cells lysate proteins (Homo sapiens, UniProt Q9Y262) (Q9Y262 whole entry): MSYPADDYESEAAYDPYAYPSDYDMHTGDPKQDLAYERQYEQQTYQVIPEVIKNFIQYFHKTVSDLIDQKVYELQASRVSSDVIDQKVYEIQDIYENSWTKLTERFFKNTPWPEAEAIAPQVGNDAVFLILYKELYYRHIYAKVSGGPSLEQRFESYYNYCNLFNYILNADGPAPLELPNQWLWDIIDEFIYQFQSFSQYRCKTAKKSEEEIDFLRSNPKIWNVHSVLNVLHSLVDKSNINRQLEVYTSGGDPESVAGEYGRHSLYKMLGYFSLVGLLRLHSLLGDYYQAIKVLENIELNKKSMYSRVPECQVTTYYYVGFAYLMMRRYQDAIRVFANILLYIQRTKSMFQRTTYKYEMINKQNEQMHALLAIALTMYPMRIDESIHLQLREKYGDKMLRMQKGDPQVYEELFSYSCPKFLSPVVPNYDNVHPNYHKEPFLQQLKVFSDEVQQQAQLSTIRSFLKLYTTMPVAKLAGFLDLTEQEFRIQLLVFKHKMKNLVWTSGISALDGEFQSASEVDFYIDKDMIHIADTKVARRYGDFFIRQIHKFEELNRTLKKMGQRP
Sequence of SW480 colon carcinoma cells lysate proteins (Homo sapiens, UniProt P07237) (P07237 18-508): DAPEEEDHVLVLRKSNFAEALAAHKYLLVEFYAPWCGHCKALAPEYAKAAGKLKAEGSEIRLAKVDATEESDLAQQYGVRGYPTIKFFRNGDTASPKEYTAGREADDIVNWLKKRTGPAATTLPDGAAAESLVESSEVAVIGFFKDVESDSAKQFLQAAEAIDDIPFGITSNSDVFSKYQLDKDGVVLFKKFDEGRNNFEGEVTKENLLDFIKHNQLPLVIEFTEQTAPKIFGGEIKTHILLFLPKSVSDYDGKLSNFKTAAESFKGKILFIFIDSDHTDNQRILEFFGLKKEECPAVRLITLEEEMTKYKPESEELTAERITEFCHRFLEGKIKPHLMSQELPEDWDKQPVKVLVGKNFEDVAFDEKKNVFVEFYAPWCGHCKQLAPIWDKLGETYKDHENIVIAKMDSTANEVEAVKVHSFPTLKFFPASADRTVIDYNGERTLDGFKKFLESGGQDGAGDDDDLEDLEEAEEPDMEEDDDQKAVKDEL
Sequence of SW480 colon carcinoma cells lysate proteins (Homo sapiens, UniProt Q15365) (Q15365 whole entry): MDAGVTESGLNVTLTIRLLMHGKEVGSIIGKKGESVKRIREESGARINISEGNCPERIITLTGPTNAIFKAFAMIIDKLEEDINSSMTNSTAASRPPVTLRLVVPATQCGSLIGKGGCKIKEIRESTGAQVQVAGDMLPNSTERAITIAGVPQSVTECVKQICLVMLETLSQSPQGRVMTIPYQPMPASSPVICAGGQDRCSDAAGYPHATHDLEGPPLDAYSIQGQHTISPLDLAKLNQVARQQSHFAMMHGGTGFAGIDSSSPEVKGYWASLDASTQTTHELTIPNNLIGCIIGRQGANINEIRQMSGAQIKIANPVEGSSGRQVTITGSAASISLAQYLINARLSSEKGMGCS
Sequence of SW480 colon carcinoma cells lysate proteins (Homo sapiens, UniProt Q92688) (Q92688 whole entry): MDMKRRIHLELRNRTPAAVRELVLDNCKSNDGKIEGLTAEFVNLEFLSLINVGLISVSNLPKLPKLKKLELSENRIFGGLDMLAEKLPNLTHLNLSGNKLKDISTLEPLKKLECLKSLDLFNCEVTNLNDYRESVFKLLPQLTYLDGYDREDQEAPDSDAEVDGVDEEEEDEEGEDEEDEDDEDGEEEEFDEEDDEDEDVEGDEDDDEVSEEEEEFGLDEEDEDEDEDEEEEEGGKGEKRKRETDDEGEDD
Sequence of SW480 colon carcinoma cells lysate proteins (Homo sapiens, UniProt Q9Y230) (Q9Y230 whole entry): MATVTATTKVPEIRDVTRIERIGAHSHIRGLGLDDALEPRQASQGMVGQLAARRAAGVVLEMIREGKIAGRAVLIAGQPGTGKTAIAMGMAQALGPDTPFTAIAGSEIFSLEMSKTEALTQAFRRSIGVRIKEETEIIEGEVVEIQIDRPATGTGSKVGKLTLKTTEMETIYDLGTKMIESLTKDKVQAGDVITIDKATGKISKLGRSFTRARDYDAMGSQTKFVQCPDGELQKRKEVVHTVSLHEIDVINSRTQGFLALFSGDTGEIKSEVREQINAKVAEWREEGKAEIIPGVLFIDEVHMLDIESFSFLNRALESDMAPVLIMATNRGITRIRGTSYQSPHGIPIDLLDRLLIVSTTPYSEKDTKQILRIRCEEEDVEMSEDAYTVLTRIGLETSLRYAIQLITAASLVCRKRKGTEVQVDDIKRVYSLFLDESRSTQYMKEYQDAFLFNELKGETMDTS

`C[C@H](Oc1cc(-c2cnn(C3CCNCC3)c2)cnc1N)c1c(Cl)ccc(F)c1Cl` [(5)-crizotinib] was tested, and the AvgP [1] was 0, the “SC.Exp. 1-1” value [1] was 1 and the “SC.Exp. 1-2” value [1] was 1. The “SC.Exp. 2-1” value [1] was 0, the “SC.Exp. 2-2” value [1] was 0 and the “SC.Exp. Sum” value [1] was 2. The AvgP [2] was 0, the “SC.Exp. 1-1” value [2] was 0 and the “SC.Exp. 1-2” value [2] was 1. The “SC.Exp. 2-1” value [2] was 0, the “SC.Exp. 2-2” value [2] was 0 and the “SC.Exp. Sum” value [2] was 1. The AvgP [3] was 0.2666, the “SC.Exp. 1-1” value [3] was 2 and the “SC.Exp. 1-2” value [3] was 2. The “SC.Exp. 2-1” value [3] was 0, the “SC.Exp. 2-2” value [3] was 0 and the “Sum (SC.Exp.)” value [3] was 4. The AvgP [4] was 0.3829, the “SC.Exp. 1-1” value [4] was 2 and the “SC.Exp. 1-2” value [4] was 2. The “SC.Exp. 2-1” value [4] was 0, the “SC.Exp. 2-2” value [4] was 0 and the “Sum (SC.Exp.)” value [4] was 4. For the same molecule, the AvgP [5] was 0.206, the “SC.Exp. 1-1” value [5] was 5 and the “SC.Exp. 1-2” value [5] was 5. For the same molecule, the “SC.Exp. 2-1” value [5] was 2, the “SC.Exp. 2-2” value [5] was 4 and the “Sum (SC.Exp.)” value [5] was 16. The AvgP [6] was 0.5116, the “SC.Exp. 1-1” value [6] was 0 and the “SC.Exp. 1-2” value [6] was 1. The “SC.Exp. 2-1” value [6] was 4, the “SC.Exp. 2-2” value [6] was 4 and the “Sum (SC.Exp.)” value [6] was 9. The AvgP [7] was 0.3981, the “SC.Exp. 1-1” value [7] was 3 and the “SC.Exp. 1-2” value [7] was 4. For the same molecule, the “SC.Exp. 2-1” value [7] was 0, the “SC.Exp. 2-2” value [7] was 0 and the “Sum (SC.Exp.)” value [7] was 7. For the same molecule, the AvgP [8] was 0, the “SC.Exp. 1-1” value [8] was 9 and the “SC.Exp. 1-2” value [8] was 7. For the same molecule, the “SC.Exp. 2-1” value [8] was 6, the “SC.Exp. 2-2” value [8] was 4 and the “SC.Exp. Sum” value [8] was 26. The AvgP [9] was 0.4297, the “SC.Exp. 1-1” value [9] was 3 and the “SC.Exp. 1-2” value [9] was 3. The “SC.Exp. 2-1” value [9] was 0, the “SC.Exp. 2-2” value [9] was 0 and the “Sum (SC.Exp.)” value [9] was 6. The AvgP [10] was 0.3871, the “SC.Exp. 1-1” value [10] was 12 and the “SC.Exp. 1-2” value [10] was 11. For the same molecule, the “SC.Exp. 2-1” value [10] was 1, the “SC.Exp. 2-2” value [10] was 0 and the “Sum (SC.Exp.)” value [10] was 24.

From patent US9446039B2, “Aminoheteroaryl compounds as MTH1 inhibitors” (CEMM—FORSCHUNGSZENTRUM FÜR MOLEKULARE MEDIZIN GMBH, priority 2012, dated 2016)
